Assay type in all cases: biochemical
The target of test [1] is T1, Alcohol Dehydrogenase (from Equine liver) (Equus caballus, UniProt P00327).
T1 construct: Alcohol Dehydrogenase (from Equine liver); from tissue; host or cells: equine liver
In words: DNP test for acetaldehyde formation: ethanol oxidation by NAD+ with Alcohol Dehydrogenase, with or without additive. As for the experimental part: (§1) The reagent quenches any oxidative reaction of alcohol as well as detects the formation of acetaldehyde. An orange, crystalline precipitate indicates a positive reaction.
(§2) The DNP reagent is a fresh solution of 0.5 gm. of 2.4-dinitrophenylhydrazine in 20 mL methanol and 5 mL concentrated sulfuric acid, diluted to 50 mL of deionized distilled water.
To a 0.05M solution of ethanol in a 1M (pH 9.25) phosphate buffer (10 μL) are added 10 μL each of a solution 0.08M in NAD^+ (in deionized distilled water) and 4 U/mL Alcohol Dehydrogenase (from Equine liver) in the above buffer, and diluted to 100 μL with buffer. At the end of a specified time, it was quenched with the DNP reagent.
The procedure in Example 1 was repeated with the addition of 10 μL of a 0.01M vanadyl sulfate solution in deionized distilled water.
The procedure-in Example 2 is repeated using a pH 7.25 1M phosphate buffer.
The procedure in Example 3 is repeated using a pH 7.25 1M phosphate buffer.

Test [2] is described as follows: Kinetics of transition metal oxidation of NADH (decrease in absorption at 340 nm). The text has this: The rate of oxidation of NADH is followed over time as the decrease in the absorption at 340 nm.
The procedure in Example 43 is repeated replacing vanadyl sulfate with potassium ferricyanide.
The procedure in Example 43 is repeated replacing vanadyl sulfate with sodium molybdate.
The procedure in Example 43 is repeated replacing vanadyl sulfate with sodium phosphotungstate.

The nature of test [3]: DNP test for acetaldehyde formation: ethanol oxidation with the enzyme solution omitted. The following applies: no additive, stood 15 minutes. As for the experimental part:
as §1, §2
The procedure in Example 1 was repeated with the omission of the enzyme solution.
The procedure in Example 3 was repeated with the omission of the enzyme solution.
The procedure in Example 4 was repeated with the omission of NAD^+.
The procedure in Example 2 is repeated using a pH 7.25 1M phosphate buffer.
The procedure in Example 4 is repeated using a pH 7.25 1M phosphate buffer.
The procedure in Example 5 is repeated using a pH 7.25 1M phosphate buffer.

A further test addresses ADH (Equus caballus, UniProt P00327). Put plainly: Rate of ADH catalyzed NAD+ oxidation of ethanol (rise in absorption at 340 nm) with additives. The following applies: pH 9.25. As for the experimental part: In Examples 51-53, the rate of ADH catalyzed NAD^+ oxidation of alcohol is followed by the rise in absorption at 340 nm, with and without additives. When a solvent (methanol) is needed to dissolve the additive, an equal amount is added to the “blank” or “control”. The results, as summarized in Table 3, indicate the effectiveness of Daidezin, Aloin and Methoxatin as accelerators.
To a 0.01M solution of ethanol (10 μL) in 1M pH 9.25 phosphate buffer, in a multi-well plate, is added a solution of aloin, of the indicated concentration (10 μL) and 10 μL of a solution containing 0.2 U/mL ADH and diluted to 180 μL with buffer. To the mixture is added 20 μL of a 0.01M solution of NAD^+ in deionized distilled water, and the absorbance at 340 nm is followed with time.
The procedure in Example 51 is repeated using Daidezin.
The procedure in Example 51 is repeated using Methoxatin.

The values below come from patent US7323452B2, “Method for the accelerated in vivo removal of ethanol” (Wardan, L.L.C., priority 2000, dated 2008).

Marks after values point to notes of the source that are not given here.

ADH, sequence (P00327 whole entry): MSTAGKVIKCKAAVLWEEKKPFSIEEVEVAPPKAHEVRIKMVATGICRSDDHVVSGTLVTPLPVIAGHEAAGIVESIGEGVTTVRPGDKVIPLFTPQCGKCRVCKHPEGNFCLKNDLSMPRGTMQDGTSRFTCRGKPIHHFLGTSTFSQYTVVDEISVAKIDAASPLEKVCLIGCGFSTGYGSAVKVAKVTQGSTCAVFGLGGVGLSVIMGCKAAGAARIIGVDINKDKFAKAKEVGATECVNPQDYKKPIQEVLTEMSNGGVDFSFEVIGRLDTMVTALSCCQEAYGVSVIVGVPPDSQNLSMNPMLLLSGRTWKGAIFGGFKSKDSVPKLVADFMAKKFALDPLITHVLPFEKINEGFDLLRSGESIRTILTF
T1 sequence (P00327 whole entry): as above

sodium phosphotungstate: the “DNP results of Examples 25-30 repeated with the additive in place of vanadyl sulfate” value in test [1] (pH 7.25) was “almost identical results”. Also, in test [1] (pH 9.25), the “DNP results of Examples 1-5 repeated with the additive in place of vanadyl sulfate” value is “almost identical results”. For the same molecule, the figures for the “Slope” value in test [2] (pH 7.25) and in test [2] (pH 9.25) were 0 mol/L/min and “.0000006 mol/L/min”, respectively. For the same molecule, the “Slope (OD/Min)” value in test [2] (pH 7.25) is 0 OD/Min; in test [2] (pH 9.25), “.007* OD/Min”.

As to `NC(=O)c1ccc[n+]([C@@H]2O[C@H](COP(=O)([O-])OP(=O)(O)OC[C@H]3O[C@@H](n4cnc5c(N)ncnc54)[C@H](O)[C@@H]3O)[C@@H](O)[C@H]2O)c1` [NAD^+, Nicotinamide Adenine Dinucleotide, reference compound], the “DNP reaction (acetaldehyde formation)” value in test [3] (pH 7.25, ethanol + NAD+) is listed as “negative”; in test [3] (pH 9.25, ethanol + NAD+), “negative”.

On to `[Na+].[Na+].[O]=[Mo](=[O])([O-])[O-]` [Molybdate, sodium molybdate], for which the entries for the “Slope” value in test [2] (pH 7.25) and in test [2] (pH 9.25) were “.00000012 mol/L/min” and “.0000003 mol/L/min”, respectively. Besides, the “Slope (OD/Min)” value was “.0025* OD/Min” in test [2] (pH 7.25, absorption at 340 nm, * unexplained, text mentions an induction period) and “.0035* OD/Min” in test [2] (pH 9.25, absorption at 340 nm, * unexplained, text mentions an induction period).

As for `O=C1c2c(O)cccc2C([C@@H]2O[C@H](CO)[C@@H](O)[C@H](O)[C@H]2O)c2cc(CO)cc(O)c21` (stereo partly shown) [Aloin], the results for the “Relative rates of Ethanol Oxidation in presence of Additives (Control = 1)” value (“Relative rates of Ethanol Oxidation” for short) at ADH (additive .000005M) and on ADH (additive .00001M) were 1.07 and 1.19, respectively.

Consider `O=C(O)c1cc(C(=O)O)c2c(n1)C(=O)C(=O)c1cc(C(=O)O)[nH]c1-2` [Methoxatin, 4,5-Dihydro-4,5-dioxo-1H-pyrrolo [2,3-f] quinoline-2,7,9-tricarboxylic acid], for which the results for the “Relative rates of Ethanol Oxidation” value at ADH (additive .000005M) and on ADH (additive .00001M) were 1.29 and 1.59, respectively.

ammonium molybdate: the “DNP results of Examples 1-5 repeated with the additive in place of vanadyl sulfate” value in test [1] (pH 9.25) is listed as “almost identical results”.

`O=S(=O)([O-])[O-].[O]=[V+2]` [vanadyl sulfate]: the “DNP reaction (acetaldehyde formation)” value in test [1] (pH 7.25) and in test [1] (pH 9.25) was “positive” throughout. The “Slope” value is “.0000036 mol/L/min” in test [2] (pH 7.25) and “.000005 mol/L/min” in test [2] (pH 9.25). In addition, the “Slope (OD/Min)” value in test [2] (pH 7.25) was “.0079 OD/Min”; in test [2] (pH 9.25), “.0112 OD/Min”.

In the case of `O=c1c(-c2ccc(O)cc2)coc2cc(O)ccc12` [Daidezin], the “Relative rates of Ethanol Oxidation” value at ADH (additive .000005M) is 1.28; on ADH (additive .00001M) it was 1.38.
